According to PubChem BioAssay (NCI):
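These data come from cells grown in 96-well plates and exposed to compound for 48 hours at five concentrations. Abbreviation: GI50, concentration required for 50% inhibition of growth. Definition used: TGI = concentration required for complete inhibition of growth.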

What was measured:
Assay in all cases: NCI tumour cell line growth inhibition, 48 h
DU-145 prostate = tested on: DU-145 prostate
HCT-15 colon = tested on: HCT-15 colon
MDA-MB-231 breast = tested on: MDA-MB-231 breast
NCI-H460 lung = tested on: NCI-H460 lung
OVCAR-5 ovarian = tested on: OVCAR-5 ovarian
SN12C renal = tested on: SN12C renal
SW-620 colon = tested on: SW-620 colon
T-47D breast = tested on: T-47D breast
TK-10 renal = tested on: TK-10 renal
UO-31 renal = tested on: UO-31 renal

## COC(=O)C1=C(O)[C@H](C(=O)OC)C2(O)C(C(=O)OC)[C@H](c3ccc(OC(=O)C(C)c4ccccc4)cc3)C[C@@H]1[C@@H]2C(=O)OC (stereo not given in full)
DU-145 prostate
  GI50: 20.6 µM
  TGI: > 50 µM
HCT-15 colon
  GI50: 18.4 µM
  TGI: > 50 µM
MDA-MB-231 breast
  GI50: 19.5 µM
  TGI: > 50 µM
NCI-H460 lung
  GI50: 19.4 µM
  TGI: > 50 µM
OVCAR-5 ovarian
  GI50: > 50 µM
  TGI: > 50 µM
SN12C renal
  GI50: 23.7 µM
  TGI: > 50 µM
SW-620 colon
  GI50: 21 µM
  TGI: > 50 µM
T-47D breast
  GI50: 12.3 µM
  TGI: > 50 µM
TK-10 renal
  GI50: 48.6 µM
  TGI: > 50 µM
UO-31 renal
  GI50: 29.5 µM
  TGI: > 50 µM

## Oc1ccc(Nc2ccc3ccccc3c2)cc1
DU-145 prostate
  GI50: 4.87 µM
  TGI: 19.2 µM
HCT-15 colon
  GI50: 3.96 µM
  TGI: 23.5 µM
MDA-MB-231 breast
  GI50: 4.06 µM
  TGI: 27.8 µM
NCI-H460 lung
  GI50: 4.27 µM
  TGI: 15.8 µM
OVCAR-5 ovarian
  GI50: 22.7 µM
  TGI: 78.3 µM
SN12C renal
  GI50: 10 µM
  TGI: > 100 µM
SW-620 colon
  GI50: 5.86 µM
  TGI: 19.5 µM
T-47D breast
  GI50: 7.1 µM
  TGI: 25.7 µM
TK-10 renal
  GI50: 4.22 µM
  TGI: 42.3 µM
UO-31 renal
  GI50: 1.6 µM
  TGI: 9.49 µM

## CC(=O)Nc1cc2cc(N)ccc2oc1=O
DU-145 prostate
  TGI: > 100 µM
HCT-15 colon
  TGI: > 100 µM
MDA-MB-231 breast
  TGI: > 100 µM
NCI-H460 lung
  TGI: > 100 µM
OVCAR-5 ovarian
  TGI: > 100 µM
SN12C renal
  TGI: > 100 µM
SW-620 colon
  TGI: > 100 µM
T-47D breast
  TGI: > 100 µM
TK-10 renal
  TGI: > 100 µM
UO-31 renal
  TGI: > 100 µM

## N#Cc1c(NCc2ccccc2)nc(NCc2ccccc2)c(C#N)c1-c1ccc(O)cc1
DU-145 prostate
  GI50: 32.4 µM
  TGI: > 100 µM
HCT-15 colon
  GI50: 29.6 µM
  TGI: > 100 µM
MDA-MB-231 breast
  GI50: 2.68 µM
  TGI: 33 µM
NCI-H460 lung
  GI50: 21.2 µM
  TGI: 53.6 µM
OVCAR-5 ovarian
  GI50: 60.3 µM
  TGI: > 100 µM
SN12C renal
  GI50: 5.99 µM
  TGI: 53.2 µM
SW-620 colon
  GI50: 36.1 µM
  TGI: > 100 µM
T-47D breast
  GI50: 23.8 µM
  TGI: > 100 µM
TK-10 renal
  GI50: 22.6 µM
  TGI: 69.4 µM
UO-31 renal
  GI50: 18.6 µM
  TGI: 68.5 µM

## COC1C(O)CC(OC2CC(OC3CC(O[C@@H]4C(=O)c5c(cc6cc(OC7CC(OC8CC(O)C(O)C(C)O8)C(O)C(C)O7)c(C)c(O)c6c5O)CC4[C@H](OC)C(=O)O)OC(C)C3O)OC(C)C2O)OC1C (stereo not given in full)
DU-145 prostate
  GI50: 1.96 µM
  TGI: > 33.3 µM
HCT-15 colon
  GI50: 6.3 µM
  TGI: > 33.3 µM
MDA-MB-231 breast
  GI50: 4.43 µM
  TGI: > 33.3 µM
NCI-H460 lung
  GI50: 1.31 µM
  TGI: > 33.3 µM
OVCAR-5 ovarian
  GI50: 4.04 µM
  TGI: > 33.3 µM
SN12C renal
  GI50: 1.72 µM
  TGI: > 33.3 µM
SW-620 colon
  GI50: 2.52 µM
  TGI: > 33.3 µM
T-47D breast
  GI50: 1.33 µM
  TGI: 32.1 µM
TK-10 renal
  GI50: 4.56 µM
  TGI: > 33.3 µM
UO-31 renal
  GI50: 1.11 µM
  TGI: > 33.3 µM

## O=c1[nH]c2ccccc2c2nc3ccccc3n12
DU-145 prostate
  TGI: > 100 µM
HCT-15 colon
  TGI: > 100 µM
MDA-MB-231 breast
  TGI: > 100 µM
NCI-H460 lung
  TGI: > 100 µM
OVCAR-5 ovarian
  TGI: > 100 µM
SN12C renal
  TGI: > 100 µM
SW-620 colon
  TGI: > 100 µM
T-47D breast
  TGI: > 100 µM
TK-10 renal
  TGI: > 100 µM
UO-31 renal
  TGI: > 100 µM

## BrC(Br)=C1C(=C(Br)Br)C(Br)C1Br (stereo not given)
DU-145 prostate
  TGI: 0.502 µM
HCT-15 colon
  TGI: 1.73 µM
MDA-MB-231 breast
  TGI: 3.63 µM
NCI-H460 lung
  TGI: 1.35 µM
OVCAR-5 ovarian
  TGI: 3.27 µM
SN12C renal
  TGI: 2.31 µM
SW-620 colon
  TGI: 1 µM
T-47D breast
  TGI: > 100 µM
TK-10 renal
  TGI: 1.93 µM
UO-31 renal
  TGI: 2.24 µM

## C=C1C(=O)O[C@H]2[C@H]1CC/C(COC(=O)NCc1c[nH]c3ccccc13)=C\CC[C@@]1(C)O[C@@H]21
DU-145 prostate
  GI50: 2.35 µM
  TGI: 10.7 µM
HCT-15 colon
  GI50: 1.67 µM
  TGI: 4.19 µM
MDA-MB-231 breast
  GI50: 1.91 µM
  TGI: 4.98 µM
NCI-H460 lung
  GI50: 8.14 µM
  TGI: 23.1 µM
OVCAR-5 ovarian
  GI50: 3.63 µM
  TGI: 14.4 µM
SN12C renal
  GI50: 1.77 µM
  TGI: 5.47 µM
SW-620 colon
  GI50: 1.7 µM
  TGI: 4.28 µM
T-47D breast
  GI50: 1.57 µM
  TGI: 4.11 µM
TK-10 renal
  GI50: 2.55 µM
  TGI: 5.65 µM
UO-31 renal
  GI50: 1.34 µM
  TGI: 2.68 µM

## O=C(/C=C/c1ccc(Cl)cc1)c1ccccc(=O)c1O
DU-145 prostate
  TGI: 19.1 µM
HCT-15 colon
  TGI: 6.08 µM
MDA-MB-231 breast
  TGI: 23.6 µM
NCI-H460 lung
  TGI: 3.04 µM
OVCAR-5 ovarian
  TGI: 19.8 µM
SN12C renal
  TGI: 4.58 µM
SW-620 colon
  TGI: > 40 µM
T-47D breast
  TGI: 19.8 µM
TK-10 renal
  TGI: 19.1 µM
UO-31 renal
  TGI: > 100 µM

## CC(C)N1CCN(c2ccncc2S(=O)(=O)N2CCCCC2)CC1
DU-145 prostate
  TGI: > 100 µM
HCT-15 colon
  TGI: > 100 µM
MDA-MB-231 breast
  TGI: > 100 µM
NCI-H460 lung
  TGI: > 100 µM
OVCAR-5 ovarian
  TGI: > 100 µM
SN12C renal
  TGI: > 100 µM
SW-620 colon
  TGI: > 100 µM
T-47D breast
  TGI: > 100 µM
TK-10 renal
  TGI: > 100 µM
UO-31 renal
  TGI: > 100 µM

## COc1ccc(C=Nc2c(C(=O)Nc3cccc(Cl)c3C)sc3nc(C)c(C(=O)/C=C/c4ccc(OC)cc4)cc23)cc1
DU-145 prostate
  GI50: 0.638 µM
  TGI: 14.6 µM
HCT-15 colon
  GI50: 0.382 µM
  TGI: > 50 µM
MDA-MB-231 breast
  GI50: 0.383 µM
  TGI: 2.26 µM
NCI-H460 lung
  GI50: 1.93 µM
  TGI: > 29.7 µM
OVCAR-5 ovarian
  GI50: 2.04 µM
  TGI: > 50 µM
SN12C renal
  GI50: 0.853 µM
  TGI: > 50 µM
SW-620 colon
  GI50: 0.412 µM
  TGI: > 50 µM
T-47D breast
  GI50: 1.28 µM
  TGI: > 50 µM
TK-10 renal
  GI50: 4.12 µM
  TGI: > 50 µM
UO-31 renal
  GI50: 2.04 µM
  TGI: > 50 µM

## COC(=O)c1ccc2c(c1)C(=O)c1c-2n(CCCCl)c(=O)c2cc([N+](=O)[O-])ccc12
DU-145 prostate
  GI50: 37.2 µM
  TGI: > 100 µM
HCT-15 colon
  GI50: > 100 µM
  TGI: > 100 µM
MDA-MB-231 breast
  GI50: > 100 µM
  TGI: > 100 µM
NCI-H460 lung
  GI50: 23.1 µM
  TGI: > 100 µM
OVCAR-5 ovarian
  GI50: > 100 µM
  TGI: > 100 µM
SN12C renal
  GI50: > 100 µM
  TGI: > 100 µM
SW-620 colon
  GI50: 44.6 µM
  TGI: > 100 µM
T-47D breast
  GI50: 92 µM
  TGI: > 100 µM
TK-10 renal
  GI50: > 100 µM
  TGI: > 100 µM
UO-31 renal
  GI50: 49.1 µM
  TGI: > 100 µM

## CCCCOC(=O)c1ccc(N)cc1
DU-145 prostate
  GI50: > 100 µM
  TGI: > 100 µM
HCT-15 colon
  GI50: 8 µM
  TGI: > 100 µM
MDA-MB-231 breast
  GI50: > 100 µM
  TGI: > 100 µM
NCI-H460 lung
  GI50: 34.3 µM
  TGI: > 100 µM
OVCAR-5 ovarian
  GI50: 34.8 µM
  TGI: > 100 µM
SN12C renal
  GI50: > 100 µM
  TGI: > 100 µM
SW-620 colon
  GI50: 64 µM
  TGI: > 100 µM
T-47D breast
  GI50: 47.6 µM
  TGI: > 100 µM
TK-10 renal
  GI50: 92 µM
  TGI: > 100 µM
UO-31 renal
  GI50: 8.74 µM
  TGI: > 100 µM

## CSC(=NC#N)S/C=C/C(=O)c1ccccc1
DU-145 prostate
  GI50: 20.6 µM
  TGI: 46.3 µM
HCT-15 colon
  GI50: 34.8 µM
  TGI: > 100 µM
MDA-MB-231 breast
  GI50: 39.2 µM
  TGI: > 100 µM
NCI-H460 lung
  GI50: > 100 µM
  TGI: > 100 µM
OVCAR-5 ovarian
  GI50: 62 µM
  TGI: > 100 µM
SN12C renal
  GI50: 39.4 µM
  TGI: > 100 µM
SW-620 colon
  GI50: 18 µM
  TGI: 43.3 µM
T-47D breast
  GI50: > 100 µM
  TGI: > 100 µM
TK-10 renal
  GI50: 34.5 µM
  TGI: > 100 µM
UO-31 renal
  GI50: 28.3 µM
  TGI: > 100 µM
